According to patent US20100092574A1, “SYNERGISTIC PEROXIDE BASED BIOCIDAL COMPOSITIONS” (priority 2008, published 2010):

Columns and labels:
[1] = tested on: microbial population of sulfite bleached pulp slurry (total aerobic counts); test: Biocidal performance in sulfite bleached pulp slurry, total aerobic counts (tryptone soy agar plating); assay type: cell-based; settings: for 3 h Reduction: 3 h contact; for 24 h Reduction: 24 h contact
Text: (§1) The expression “1 g cfu/mL” denotes the common (decadic) logarithm of the number of colony-forming units per milliliter or, in connection with the term “reduction”, the common logarithm of the quotient of the number of colony-forming units per milliliter before treatment and the number of colony-forming units after treatment. Unless otherwise indicated all concentrations in percent or ppm are expressed on a weight basis.
Synergistic biocidal performance upon co-application of sulfite with hydrogen peroxide at elevated pH was investigated. The sulfite and peroxide concentrations indicated in Table 3 below were added to an aqueous solution made from: (a) deionized water, (b) NaHCO3 to achieve a carbonate buffer concentration of 200 ppm (as CaCO3 total alkalinity), (c) sulfite bleached pulp slurry to achieve a final consistency of 0.05%, carrying an associated minimal concentration of residual sulfite of 6 ppm, and (d) NaOH to achieve a pH of 9.0.
The microbial population was that provided by preparing the pulp slurry 24-48 h prior to testing and storing at room temperature, thus allowing microbial growth to a high test level. […] Populations reported are total aerobic counts using tryptone soy agar plating.
SI=(level of A)/(efficacious level of A)+(level of B)/(efficacious level of B) (3)
Synergy upon co-application of sulfite with hydrogen peroxide at higher concentrations of sulfite and hydrogen peroxide was investigated. The conditions were the same as in Example 3.

[2] = Residual sulfite and hydrogen peroxide content after mixing (co-stability); assay type: physicochemical
Method: Aqueous solutions containing sodium sulfite and hydrogen peroxide were mixed at 21° C. to obtain a solution having a sulfite content (as SO3^2−) of 40 ppm, a hydrogen peroxide content of 20.0 ppm and a pH of 6.7. The temperature of the solution was maintained at 21° C. and the residual sulfite and peroxide content was determined at 15, 30 and 60 minutes after mixing. The procedure consisted of adding a known amount of 1-chloro-5,5-dimethylhydantoin (MCDMH) to the samples in excess of the estimated residual sulfite content. The remaining MCDMH concentration was then measured by standard DPD total halogen methodologies. As sulfite rapidly neutralizes MCDMH at all pHs the sulfite concentration is the concentration of MCDMH added less the concentration of MCDMH measured, see Equation 1 below.
[Sulfite]=[MCDMHadded]−[MCDMHmeasured] (1)
The H2O2 concentration was determined by recording the concentration of H2O2 measured using acidic thiosulfate titration with KI indicator (HACH HYP-1 hydrogen peroxide test kit—Hach Co., Loveland, Colo.). Since this titration is run at acidic pH, this method yields the concentration of H2O2 in excess of the sulfite concentration contained in the sample. As the sulfite concentration is known from the MCMDH analysis and Equation 1, the H2O2 concentration can be calculated using the following Equation 2:
[H2O2]=[H2O2 measured]+[Sulfitecalculated] (2)
The estimated error in the methodology is ±1 ppm
The procedure of Example 1 was repeated with the difference that the pH of the mixed solution was 9.0 and the residual concentrations were determined 5, 15, 30, 60, 120 and 1080 minutes after mixing.

[3] = Stability of active halogen species in the presence of residual H2O2; assay type: physicochemical
Method: The stability of nitrogen-bound active halogen species in the presence of residual H2O2 was investigated. Free and total chlorine concentrations were measured by standard DPD methodology and the total H2O2 concentration by acidic […] titration. The concentration of MCDMH is the concentration of the total active halogen less the concentration of free active halogen. The concentration of H2O2 is the total oxidant concentration less the MCDMH concentration. […] The indicated reaction is shown in Equation 6.
The effect of the addition of a molar equivalent of 5,5-dimethylhydantoin (DMH) to NaOCl solutions prior to combination with hydrogen peroxide was investigated. The concentration of MCDMH is the concentration of the total active halogen less the concentration of free active halogen. The concentration of H2O2 is the total oxidant concentration less the MCDMH concentration.

Pseudomonas aeruginosa = test: Bactericidal efficacy of sulfite and hydrogen peroxide solutions in the absence of pulp; assay type: cell-based; settings: for reduction: 50 ppm hydrogen peroxide, 3 h
Text: as §1
The bactericidal efficacy of solutions containing sulfite and hydrogen peroxide was further investigated in the absence of pulp. Efficacy was measured against Pseudomonas aeruginosa grown in nutrient in the presence of 83 and 830 ppm sulfite. The sulfite-containing P. aeruginosa inoculum was then diluted 1:99 with Butterfield's buffer at pH 7.0. The sulfite concentrations in Table 5 below are the those in the final dilution. The dilutions were then contacted with 50 ppm hydrogen peroxide for 3 h at 37° C.

[4] = Example 3, hydrogen peroxide alone (40-160 ppm per Table 3)
[5] = Example 4, hydrogen peroxide alone at 120-160 ppm
[6] = Table 3 Test No. 4: sulfite 0 ppm, peroxide 40 ppm, pH 9.0
[7] = Table 3 Test No. 5: sulfite 0 ppm, peroxide 160 ppm, pH 9.0
[8] = Table 4 Test No. 4: sulfite 0 ppm, peroxide 120 ppm
[9] = Table 4 Test No. 5: sulfite 0 ppm, peroxide 150 ppm
[10] = Table 4 Test No. 6: sulfite 0 ppm, peroxide 160 ppm

OO [hydrogen peroxide]
reduction in 3 h [1, 4]: 1.2-3.5 1 g cfu/mL
reduction in 24 h [1, 4]: 5.5 1 g cfu/mL
reduction in 3 h [1, 5]: 3.3-4.0 1 g cfu/mL
reduction in 24 h [1, 5]: 3.7-5.5 1 g cfu/mL
amount alone required to achieve 1 g cfu/mL reduction of 4.2 ([1]; Example 4, single agent): ≥ 150 ppm
3 h Reduction [1, 6]: 1.2 lg cfu/mL
24 h Reduction [1, 6]: 5.5 lg cfu/mL
3 h Reduction [1, 7]: 3.5 lg cfu/mL
24 h Reduction [1, 7]: 5.5 lg cfu/mL
3 h Reduction [1, 8]: 4.0 lg cfu/mL
24 h Reduction [1, 8]: 4.5 lg cfu/mL
3 h Reduction [1, 9]: 4.2 lg cfu/mL
24 h Reduction [1, 9]: 3.7 lg cfu/mL
3 h Reduction [1, 10]: 3.3 lg cfu/mL
24 h Reduction [1, 10]: 5.0 lg cfu/mL
H2O2 ([2]; pH 6.7, 21° C., start 40 ppm sulfite + 20.0 ppm H2O2, 15 min): 6.1 ppm
H2O2 ([2]; pH 6.7, 21° C., start 40 ppm sulfite + 20.0 ppm H2O2, 30 min): 5.1 ppm
H2O2 ([2]; pH 6.7, 21° C., start 40 ppm sulfite + 20.0 ppm H2O2, 60 min): 2.4 ppm
H2O2 ([2]; pH 9.0, start 40 ppm sulfite + 20.0 ppm H2O2, 5 min): 16.9 ppm
H2O2 ([2]; pH 9.0, start 40 ppm sulfite + 20.0 ppm H2O2, 15 min): 14.8 ppm
H2O2 ([2]; pH 9.0, start 40 ppm sulfite + 20.0 ppm H2O2, 30 min): 14.7 ppm
H2O2 ([2]; pH 9.0, start 40 ppm sulfite + 20.0 ppm H2O2, 60 min): 15.2 ppm
H2O2 ([2]; pH 9.0, start 40 ppm sulfite + 20.0 ppm H2O2, 120 min): 13.2 ppm
H2O2 ([2]; pH 9.0, start 40 ppm sulfite + 20.0 ppm H2O2, 1080 min): 8.1 ppm
Indicated Species H2O2 ([3]; 2.1 ppm H2O2 + 1.0 ppm DMH stabilized NaOCl, 1 min): 2.1 ppm
Indicated Species H2O2 ([3]; 2.1 ppm H2O2 + 1.0 ppm DMH stabilized NaOCl, 5 min): 1.9 ppm
Indicated Species H2O2 ([3]; 2.1 ppm H2O2 + 1.0 ppm DMH stabilized NaOCl, 60 min): 2.3 ppm
Indicated Species H2O2 ([3]; 2.1 ppm H2O2 + 1.0 ppm NaOCl (as Cl2), 1 min): 1.8 ppm
Indicated Species H2O2 ([3]; 2.1 ppm H2O2 + 1.0 ppm NaOCl (as Cl2), 5 min): 1.8 ppm
Indicated Species H2O2 ([3]; 2.1 ppm H2O2 + 1.0 ppm NaOCl (as Cl2), 15 min): 1.4 ppm
H2O2 residue ([3]; combination of 2.1 ppm H2O2 with 1 ppm NaOCl (as Cl2), immediate): ~1.6 ppm
reduction (Pseudomonas aeruginosa; P. aeruginosa grown up in 830 ppm sulfite diluted to 8.3 ppm during application): 1.5 1 g cfu/mL
reduction (Pseudomonas aeruginosa; P. aeruginosa grown up in the absence of sulfite): 0.9 1 g cfu/mL
3 h Reduction (Pseudomonas aeruginosa; Table 5 Test No. 4: sulfite 0 ppm, peroxide 50 ppm, pH 7.0, 3 h at 37° C.): 0.9 lg cfu/mL
